In paper PMC9638991, “Designed High-Redox Potential Laccases Exhibit High Functional Diversity” (ACS Catalysis, 2022):

Assays:
Assay in all cases: colorimetric oxidation kinetics, purified enzyme
Format in all cases: biochemical
[1] = molecular target: T1, Th3 (Trametes hirsuta, UniProt B2L9C1, N227E/S448D, form not given); details: optimal pH, O2 as co-substrate
T1 construct: gene Lac; secreted from S. cerevisiae (pJRoC30), purified fraction, about 56 kDa; wild type not expressible

[2] = molecular target: T2, Th3 (Trametes hirsuta, UniProt B2L9C1); details: optimal pH 4, O2 as co-substrate
T2 construct: gene Lac; secreted from S. cerevisiae (pJRoC30), purified fraction, about 56 kDa; wild type not expressible
T2 sequence (B2L9C1 entry or part of it): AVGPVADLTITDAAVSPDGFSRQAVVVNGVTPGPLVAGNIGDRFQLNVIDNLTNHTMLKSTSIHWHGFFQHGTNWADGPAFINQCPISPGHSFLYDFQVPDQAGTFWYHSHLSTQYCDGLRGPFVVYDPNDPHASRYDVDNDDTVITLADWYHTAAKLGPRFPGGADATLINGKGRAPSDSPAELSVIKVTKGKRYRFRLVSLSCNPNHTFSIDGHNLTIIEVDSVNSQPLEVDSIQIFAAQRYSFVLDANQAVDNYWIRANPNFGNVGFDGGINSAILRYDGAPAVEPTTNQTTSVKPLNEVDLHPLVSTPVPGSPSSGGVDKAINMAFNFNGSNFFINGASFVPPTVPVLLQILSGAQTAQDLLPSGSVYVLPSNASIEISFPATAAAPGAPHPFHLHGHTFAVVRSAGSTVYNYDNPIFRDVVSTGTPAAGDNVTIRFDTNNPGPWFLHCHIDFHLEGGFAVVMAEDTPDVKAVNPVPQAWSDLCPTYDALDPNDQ

[3] = molecular target: T3, Th3 (Trametes hirsuta, UniProt B2L9C1, F286M/A414S, form not given); details: optimal pH 5; O2 as co-substrate
T3 construct: gene Lac
T3 sequence (B2L9C1 entry or part of it F286M/A414S, form open): as the sequence (B2L9C1 entry or part of it) above, with F265M, A393S counted along it

[4] = molecular target: T4, OB-1 (basidiomycete PM1, UniProt Q12571); details: optimal pH; O2 as co-substrate
T4 construct: S. cerevisiae expression, purified
T4 sequence (Q12571 entry or part of it): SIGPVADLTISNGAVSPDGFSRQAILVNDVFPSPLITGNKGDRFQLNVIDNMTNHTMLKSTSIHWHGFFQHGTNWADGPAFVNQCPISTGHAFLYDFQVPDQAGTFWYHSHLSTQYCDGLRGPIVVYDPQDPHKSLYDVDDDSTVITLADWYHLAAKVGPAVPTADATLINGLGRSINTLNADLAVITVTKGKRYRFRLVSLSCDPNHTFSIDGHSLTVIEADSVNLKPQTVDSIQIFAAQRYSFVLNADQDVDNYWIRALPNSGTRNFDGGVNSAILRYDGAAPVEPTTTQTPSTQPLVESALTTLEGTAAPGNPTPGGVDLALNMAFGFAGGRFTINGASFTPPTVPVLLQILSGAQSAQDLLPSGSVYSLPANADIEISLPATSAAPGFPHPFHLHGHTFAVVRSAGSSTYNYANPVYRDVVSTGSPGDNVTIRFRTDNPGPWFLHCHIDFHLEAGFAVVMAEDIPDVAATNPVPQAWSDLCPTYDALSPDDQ

[5] = molecular target: T5, Th3 (Trametes hirsuta, UniProt B2L9C1, N227H/F478W, form not given); details: optimal pH; O2 as co-substrate
T5 construct: gene Lac; secreted from S. cerevisiae (pJRoC30), purified fraction, about 56 kDa; wild type not expressible
T5 sequence (B2L9C1 entry or part of it N227H/F478W, form open): as the sequence (B2L9C1 entry or part of it) above, with N206H, F457W counted along it

[6] = text prints 'for Th3.7' inside a sentence on Th3.10 (apparent misprint, check Table S4)

T1 sequence (B2L9C1 entry or part of it N227E/S448D, form open): as the sequence (B2L9C1 entry or part of it) above, with N206E, S427D counted along it

Km [1]	Km [2]	Km [3]	Km [4]	Km [1, 6]	Km [5]	Km ([2]; purified fraction, values estimates)	Compound
667 ± 36 µM	1790 ± 160 µM	555 ± 85 µM	1070 ± 30 µM	–	–	–	COc1ccccc1O [GUA, guaiacol]
–	–	–	81 ± 15 µM	150 µM	185 µM	–	COc1cc(/C=C/C(=O)O)cc(OC)c1O [SA, sinapic acid]
–	–	–	165 ± 2 µM	17.1 µM	44 µM	1280 µM	COc1cccc(OC)c1O [DMP, 2,6-dimethoxyphenol]
